How the values were obtained:
human Adrenergic α2A = human Adrenergic α2A (Homo sapiens (Human), UniProt P08913); experiment: GPCR radioligand binding assay; conditions: tested at 10 μM in duplicate
human Dopamine D3 = human Dopamine D3 (Homo sapiens (Human), UniProt P35462); experiment: GPCR radioligand binding assay; conditions: tested at 10 μM in duplicate
hERG channel = hERG channel (Homo sapiens (Human), UniProt Q12809); experiment: hERG inhibition
[1] = Plasma Protein Binding, rat; format: in vitro ADME
CYP3A4 = CYP3A4 (Homo sapiens (Human), UniProt P08684); experiment: CYP450 Inhibition; format: in vitro ADME; conditions: at 10 μM
human TRPM8 = human TRPM8 (Homo sapiens (Human), UniProt Q7Z2W7); experiment: HTS cellular-based calcium assay for human TRPM8 antagonists (FLIPR TETRA); conditions: HEK293/hTRPM8 cells, agonist Cooling Agent 10 at EC80, Ca2+ fluorescence
human Adrenergic β2 = human Adrenergic β2 (Homo sapiens (Human), UniProt P07550); experiment: GPCR radioligand binding assay; conditions: tested at 10 μM in duplicate
human Muscarinic M3 = human Muscarinic M3 (Homo sapiens (Human), UniProt P20309); experiment: GPCR radioligand binding assay; conditions: tested at 10 μM in duplicate
Chain of human Muscarinic M3 (P20309 whole entry): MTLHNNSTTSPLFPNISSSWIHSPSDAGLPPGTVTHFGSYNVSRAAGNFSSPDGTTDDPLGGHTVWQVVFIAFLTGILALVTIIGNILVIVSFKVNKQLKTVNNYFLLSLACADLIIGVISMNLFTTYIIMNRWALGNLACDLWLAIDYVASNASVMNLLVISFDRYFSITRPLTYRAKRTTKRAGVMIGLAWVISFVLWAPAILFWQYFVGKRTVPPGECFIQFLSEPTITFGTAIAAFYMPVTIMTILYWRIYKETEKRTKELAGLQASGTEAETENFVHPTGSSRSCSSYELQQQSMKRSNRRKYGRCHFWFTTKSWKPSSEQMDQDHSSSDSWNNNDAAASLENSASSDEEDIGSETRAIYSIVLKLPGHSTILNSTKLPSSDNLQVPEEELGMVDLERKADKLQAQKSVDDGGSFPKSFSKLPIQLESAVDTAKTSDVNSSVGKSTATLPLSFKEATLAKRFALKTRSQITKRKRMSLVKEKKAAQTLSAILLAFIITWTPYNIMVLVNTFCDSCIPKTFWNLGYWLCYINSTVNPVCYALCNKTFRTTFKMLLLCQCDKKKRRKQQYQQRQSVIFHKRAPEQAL

human Opioid δ2 (DOP) = human Opioid δ2 (DOP) (Homo sapiens (Human), UniProt P41143); experiment: GPCR radioligand binding assay; conditions: tested at 10 μM in duplicate
CYP1A2 = CYP1A2 (Homo sapiens (Human), UniProt P05177); experiment: CYP450 Inhibition; format: in vitro ADME; conditions: at 10 μM
human Adrenergic α1A = human Adrenergic α1A (Homo sapiens (Human), UniProt P35348); experiment: GPCR radioligand binding assay; conditions: tested at 10 μM in duplicate
Chain of human Adrenergic α1A (P35348 whole entry): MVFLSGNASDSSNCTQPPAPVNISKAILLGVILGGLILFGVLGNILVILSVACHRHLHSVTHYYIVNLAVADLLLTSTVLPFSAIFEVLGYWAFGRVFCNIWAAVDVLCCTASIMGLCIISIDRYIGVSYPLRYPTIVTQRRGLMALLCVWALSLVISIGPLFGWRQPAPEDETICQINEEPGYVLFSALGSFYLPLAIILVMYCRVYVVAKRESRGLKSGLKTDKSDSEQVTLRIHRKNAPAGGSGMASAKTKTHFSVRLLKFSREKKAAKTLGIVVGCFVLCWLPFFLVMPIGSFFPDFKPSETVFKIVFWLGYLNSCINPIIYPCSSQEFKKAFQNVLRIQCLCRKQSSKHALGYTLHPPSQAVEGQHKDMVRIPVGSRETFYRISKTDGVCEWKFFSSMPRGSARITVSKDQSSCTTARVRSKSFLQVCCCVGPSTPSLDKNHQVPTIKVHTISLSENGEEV

human Bradykinin B1 = human Bradykinin B1 (Homo sapiens (Human), UniProt P46663); experiment: GPCR radioligand binding assay; conditions: tested at 10 μM in duplicate
human Cannabinoid CB2 = human Cannabinoid CB2 (Homo sapiens (Human), UniProt P34972); experiment: GPCR radioligand binding assay; conditions: tested at 10 μM in duplicate
human Opioid K (KOP) = human Opioid K (KOP) (Homo sapiens (Human), UniProt P41145); experiment: GPCR radioligand binding assay; conditions: tested at 10 μM in duplicate
human Cannabinoid CB1 = human Cannabinoid CB1 (Homo sapiens (Human), UniProt P21554); experiment: GPCR radioligand binding assay; conditions: tested at 10 μM in duplicate
human Opioid μ (MOP) = human Opioid μ (MOP) (Homo sapiens (Human), UniProt P35372); experiment: GPCR radioligand binding assay; conditions: tested at 10 μM in duplicate
Chain of human Opioid μ (MOP) (P35372 whole entry): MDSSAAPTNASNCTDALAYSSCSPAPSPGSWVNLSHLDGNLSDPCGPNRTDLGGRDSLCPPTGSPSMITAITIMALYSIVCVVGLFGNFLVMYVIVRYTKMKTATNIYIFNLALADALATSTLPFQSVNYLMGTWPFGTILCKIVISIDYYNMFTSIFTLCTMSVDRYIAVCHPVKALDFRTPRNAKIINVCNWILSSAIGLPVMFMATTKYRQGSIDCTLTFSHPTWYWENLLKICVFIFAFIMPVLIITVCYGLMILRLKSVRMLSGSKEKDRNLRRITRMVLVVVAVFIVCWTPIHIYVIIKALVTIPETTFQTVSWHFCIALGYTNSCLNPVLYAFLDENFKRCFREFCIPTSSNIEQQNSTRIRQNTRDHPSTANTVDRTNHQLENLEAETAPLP

human Bradykinin B2 = human Bradykinin B2 (Homo sapiens (Human), UniProt P30411); experiment: GPCR radioligand binding assay; conditions: tested at 10 μM in duplicate
[2] = target: human Serotoninergic 5-HT1A (Homo sapiens (Human), UniProt P08908); experiment: GPCR radioligand binding assay; conditions: tested at 10 μM in duplicate
human cytochrome isoform = experiment: Effect towards human cytochrome isoforms; format: in vitro ADME; conditions: at the maximal concentration of 10 μM
[3] = Plasma Protein Binding, human; format: in vitro ADME
human Opioid NOP (ORL1) = human Opioid NOP (ORL1) (Homo sapiens (Human), UniProt P41146); experiment: GPCR radioligand binding assay; conditions: tested at 10 μM in duplicate
Chain of human Opioid NOP (ORL1) (P41146 whole entry): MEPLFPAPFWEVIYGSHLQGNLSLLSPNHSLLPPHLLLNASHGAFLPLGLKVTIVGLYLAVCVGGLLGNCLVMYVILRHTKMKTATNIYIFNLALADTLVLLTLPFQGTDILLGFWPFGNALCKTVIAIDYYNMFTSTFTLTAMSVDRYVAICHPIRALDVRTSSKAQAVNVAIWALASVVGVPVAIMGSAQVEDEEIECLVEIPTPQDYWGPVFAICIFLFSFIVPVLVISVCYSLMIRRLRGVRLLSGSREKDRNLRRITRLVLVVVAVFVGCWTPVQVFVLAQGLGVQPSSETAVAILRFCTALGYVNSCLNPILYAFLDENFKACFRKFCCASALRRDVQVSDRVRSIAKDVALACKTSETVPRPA

[4] = Pharmacokinetic profile, intravenous and oral administration; format: in vivo
Method: The ADME properties and the pharmacokinetic profile of compound 2 were evaluated.

human Histamine H2 = human Histamine H2 (Homo sapiens (Human), UniProt P25021); experiment: GPCR radioligand binding assay; conditions: tested at 10 μM in duplicate
Rat Plasma Stability = format: in vitro ADME
CYP2D6 = CYP2D6 (Homo sapiens (Human), UniProt P10635); experiment: CYP450 Inhibition; format: in vitro ADME; conditions: at 10 μM
cold allodynia = experiment: Chronic constriction model of pain, cold allodynia (drop of acetone); format: in vivo, male Sprague-Dawley rats; conditions: oral 10 mg/kg
Method: (§1) Neuropathic pain behavior will be induced by ligation of the sciatic nerve according to the method described by Bennett G J et al., Pain. 33: 87-107, 1988. Briefly, male Sprague-Dawley rats will be anaesthetized (100 mg/kg ketamine and 10 mg/kg xylazine i.p.) and the left sciatic nerve will be exposed at the level of the thigh by blunt dissection through the biceps femoris. Proximal to the sciatic's trifurcation, about 12 mm of nerve will be freed of adhering tissue and four ligatures will be loosely tied around it with about 1 mm spacing so that the epineural circulation will be preserved. The length of nerve thus affected was 6-8 mm long. The animals will be allowed to recover and used the day after the surgery. Sham animals represent rats operated but not ligated.
(§2) All data were presented as the mean±SEM. Analysis of data was conducted using GraphPad Prism 4.01. Statistical analysis was performed by two-way ANOVA followed by Dunnett's test for multiple comparisons, as appropriate. Statistical significance was set at p<0.05.

CYP2C9 = CYP2C9 (Homo sapiens (Human), UniProt P11712); experiment: CYP450 Inhibition; format: in vitro ADME; conditions: at 10 μM
Chain of CYP2C9 (P11712 whole entry): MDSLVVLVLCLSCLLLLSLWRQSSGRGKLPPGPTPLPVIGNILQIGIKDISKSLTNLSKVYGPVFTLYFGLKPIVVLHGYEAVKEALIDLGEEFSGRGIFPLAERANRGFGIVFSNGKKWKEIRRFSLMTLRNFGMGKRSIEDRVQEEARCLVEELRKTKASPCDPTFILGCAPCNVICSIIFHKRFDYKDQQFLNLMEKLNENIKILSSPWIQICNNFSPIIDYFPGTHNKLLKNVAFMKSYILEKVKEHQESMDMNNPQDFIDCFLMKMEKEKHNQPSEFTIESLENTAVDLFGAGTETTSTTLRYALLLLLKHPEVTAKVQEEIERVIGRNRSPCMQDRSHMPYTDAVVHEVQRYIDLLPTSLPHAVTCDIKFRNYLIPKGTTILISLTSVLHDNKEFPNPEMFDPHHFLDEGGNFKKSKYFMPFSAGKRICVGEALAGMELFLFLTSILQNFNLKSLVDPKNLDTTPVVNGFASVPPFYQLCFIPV

TRPV1 = TRPV1 (Homo sapiens (Human), UniProt Q8NER1); experiment: TRPV1 antagonist calcium influx assay; format: cell-based; conditions: agonist capsaicin = 100%, ruthenium red = 0
Description: The signal elicited in the presence of the positive control agonist (capsaicin) was set to 100% and the signal in the presence of the antagonist (ruthenium red) was set to 0. […] The signal elicited in the presence of the positive control agonist (GSK1016790A) was set to 100% and the signal in the presence of the antagonist (ruthenium red) was set to 0. […] The signal elicited in the presence of the positive control agonist (allyl isothiocyanate, AITC) was set to 100% and the signal in the presence of the antagonist (ruthenium red) was set to 0.

CLint (rat) = format: in vitro ADME
human Dopamine D2S = human Dopamine D2S (Homo sapiens (Human), UniProt P14416); experiment: GPCR radioligand binding assay; conditions: tested at 10 μM in duplicate
human Histamine H1 = human Histamine H1 (Homo sapiens (Human), UniProt P35367); experiment: GPCR radioligand binding assay; conditions: tested at 10 μM in duplicate
Chain of human Histamine H1 (P35367 whole entry): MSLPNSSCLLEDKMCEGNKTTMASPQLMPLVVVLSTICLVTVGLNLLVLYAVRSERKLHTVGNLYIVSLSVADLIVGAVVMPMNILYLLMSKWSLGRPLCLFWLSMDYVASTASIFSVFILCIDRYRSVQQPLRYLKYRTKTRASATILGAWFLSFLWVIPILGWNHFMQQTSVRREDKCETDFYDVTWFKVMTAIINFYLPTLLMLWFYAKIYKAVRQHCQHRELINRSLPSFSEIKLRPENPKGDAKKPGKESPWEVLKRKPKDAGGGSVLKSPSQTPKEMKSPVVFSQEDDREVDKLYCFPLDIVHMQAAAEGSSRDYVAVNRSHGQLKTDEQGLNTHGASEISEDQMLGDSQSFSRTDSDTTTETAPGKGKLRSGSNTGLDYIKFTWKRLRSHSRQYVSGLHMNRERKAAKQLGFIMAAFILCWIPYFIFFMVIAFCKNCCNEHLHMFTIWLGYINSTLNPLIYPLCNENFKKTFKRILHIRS

human Adrenergic β1 = human Adrenergic β1 (Homo sapiens (Human), UniProt P08588); experiment: GPCR radioligand binding assay; conditions: tested at 10 μM in duplicate
human NK1 = human NK1 (Homo sapiens (Human), UniProt P25103); experiment: GPCR radioligand binding assay; conditions: tested at 10 μM in duplicate
Chain of human NK1 (P25103 whole entry): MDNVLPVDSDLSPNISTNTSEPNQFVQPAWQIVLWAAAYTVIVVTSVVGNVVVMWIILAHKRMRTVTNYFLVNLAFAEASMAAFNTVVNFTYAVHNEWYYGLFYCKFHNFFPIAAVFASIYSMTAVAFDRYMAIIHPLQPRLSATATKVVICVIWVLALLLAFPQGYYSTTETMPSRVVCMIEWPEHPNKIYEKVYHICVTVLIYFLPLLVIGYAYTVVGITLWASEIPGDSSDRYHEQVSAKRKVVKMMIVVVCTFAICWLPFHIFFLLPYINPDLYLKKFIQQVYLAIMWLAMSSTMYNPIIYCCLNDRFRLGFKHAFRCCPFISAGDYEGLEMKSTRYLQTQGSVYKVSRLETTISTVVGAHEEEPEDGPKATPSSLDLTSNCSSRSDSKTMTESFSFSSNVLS

CYP2C19 = CYP2C19 (Homo sapiens (Human), UniProt P33261); experiment: CYP450 Inhibition; format: in vitro ADME; conditions: at 10 μM
human Muscarinic M2 = human Muscarinic M2 (Homo sapiens (Human), UniProt P08172); experiment: GPCR radioligand binding assay; conditions: tested at 10 μM in duplicate
mechanical allodynia = experiment: Chronic constriction model of pain, mechanical allodynia (Dynamic Plantar Aesthesiometer); format: in vivo, male Sprague-Dawley rats; conditions: oral 10 mg/kg
Method: as §1, §2

[5] = oral administration, PO 10 mg/kg
[6] = plasma, intravenous administration, IV 5 mg/kg
[7] = plasma, oral administration, PO 10 mg/kg
[8] = day 7 and day 14, 3 hours and 5 hours post-dose
[9] = day 7 and day 14 after nerve injury, 3 hours after treatment

Chain of hERG channel (Q12809 whole entry): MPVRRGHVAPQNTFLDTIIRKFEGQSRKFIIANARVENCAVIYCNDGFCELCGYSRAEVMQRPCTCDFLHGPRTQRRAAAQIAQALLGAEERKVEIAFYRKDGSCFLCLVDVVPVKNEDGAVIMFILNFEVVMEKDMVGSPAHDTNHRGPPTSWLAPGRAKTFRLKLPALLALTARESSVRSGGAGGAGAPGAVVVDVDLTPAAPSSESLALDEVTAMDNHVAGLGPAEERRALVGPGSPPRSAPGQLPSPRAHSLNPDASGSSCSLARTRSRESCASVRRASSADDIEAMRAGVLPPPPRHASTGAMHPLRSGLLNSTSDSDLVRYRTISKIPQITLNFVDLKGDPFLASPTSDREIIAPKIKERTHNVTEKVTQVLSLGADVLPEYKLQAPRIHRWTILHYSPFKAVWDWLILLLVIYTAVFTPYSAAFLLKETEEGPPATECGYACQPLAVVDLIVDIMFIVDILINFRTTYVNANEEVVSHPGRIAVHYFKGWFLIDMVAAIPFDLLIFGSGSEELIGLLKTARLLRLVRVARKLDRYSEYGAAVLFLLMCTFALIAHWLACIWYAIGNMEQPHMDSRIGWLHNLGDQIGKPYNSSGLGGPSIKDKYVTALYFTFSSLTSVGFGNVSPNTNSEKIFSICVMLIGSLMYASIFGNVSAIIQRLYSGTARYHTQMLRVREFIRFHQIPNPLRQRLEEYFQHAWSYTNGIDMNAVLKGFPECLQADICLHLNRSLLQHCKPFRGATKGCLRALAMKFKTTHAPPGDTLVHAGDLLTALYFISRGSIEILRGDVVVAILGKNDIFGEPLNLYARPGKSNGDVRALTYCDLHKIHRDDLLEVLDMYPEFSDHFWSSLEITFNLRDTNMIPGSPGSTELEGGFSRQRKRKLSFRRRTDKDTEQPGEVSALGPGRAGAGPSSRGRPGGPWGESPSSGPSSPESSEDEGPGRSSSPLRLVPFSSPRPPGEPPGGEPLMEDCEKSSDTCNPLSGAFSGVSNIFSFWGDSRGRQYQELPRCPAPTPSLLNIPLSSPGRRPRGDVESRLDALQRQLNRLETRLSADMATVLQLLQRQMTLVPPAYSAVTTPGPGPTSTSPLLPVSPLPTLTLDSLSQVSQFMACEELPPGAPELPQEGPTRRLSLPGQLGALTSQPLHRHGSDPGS
Chain of human Dopamine D3 (P35462 whole entry): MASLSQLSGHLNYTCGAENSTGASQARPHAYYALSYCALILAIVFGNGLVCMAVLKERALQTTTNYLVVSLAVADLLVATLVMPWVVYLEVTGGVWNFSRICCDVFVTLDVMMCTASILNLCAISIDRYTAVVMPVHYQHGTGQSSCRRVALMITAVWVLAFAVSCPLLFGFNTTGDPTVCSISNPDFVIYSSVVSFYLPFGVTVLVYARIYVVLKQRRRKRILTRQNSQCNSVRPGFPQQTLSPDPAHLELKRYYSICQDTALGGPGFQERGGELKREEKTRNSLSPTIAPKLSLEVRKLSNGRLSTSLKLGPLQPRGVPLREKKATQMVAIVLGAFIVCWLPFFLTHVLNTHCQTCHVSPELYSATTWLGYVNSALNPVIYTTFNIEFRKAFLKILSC

In the case of CCC(=O)c1sc(-c2cccc(F)c2)nc1[O-].[Na+] [Compound 2, sodium 2-(3-fluorophenyl)-5-propanoyl-1,3-thiazol-4-olate], the “activity towards human Adrenergic α2A” value (human Adrenergic α2A) is reported as “inactive”, the “activity towards human Dopamine D3” value (human Dopamine D3) is reported as “inactive” and the IC50 (hERG channel) is reported as greater than 1000 µM. For the same molecule, the “effect towards hERG channel” value (hERG channel) was “none effect”, the fraction unbound [1] was 0.025 and the IC50 (CYP3A4) was greater than 30 µM. For the same molecule, the IC50 (human TRPM8) was 0.028 µM, the “activity towards human Adrenergic β2” value (human Adrenergic β2) was “inactive” and the “activity towards human Muscarinic M3” value (human Muscarinic M3) was “inactive”. The “activity towards human Opioid δ2 (DOP)” value (human Opioid δ2 (DOP)) was “inactive”, the IC50 (CYP1A2) was greater than 30 µM and the “activity towards human Adrenergic α1A” value (human Adrenergic α1A) was “inactive”. The “activity towards human Bradykinin B1” value (human Bradykinin B1) was “inactive”, the “activity towards human Cannabinoid CB2” value (human Cannabinoid CB2) was “inactive” and the pKa (physchem) was 4.18. The “activity towards human Opioid K (KOP)” value (human Opioid K (KOP)) was “inactive”, the “activity towards human Cannabinoid CB1” value (human Cannabinoid CB1) was “inactive” and the “activity towards human Opioid μ (MOP)” value (human Opioid μ (MOP)) was “inactive”. For the same molecule, the “activity towards human Bradykinin B2” value (human Bradykinin B2) was “inactive”, the “activity towards human Serotoninergic 5-HT1A” value [2] was “inactive” and the “effect towards any human cytochrome isoform” value (human cytochrome isoform) was “no effect”. The fraction unbound [3] was 0.0129, the “activity towards human Opioid NOP (ORL1)” value (human Opioid NOP (ORL1)) was “inactive” and the “Vds” value ([4]; intravenous administration, IV 5 mg/kg) was 1.78 L/kg. The “CL” value [4, 5] was 6.41 mL/min/kg, the “t1/2” value [4, 5] was 2.94 h and the clearance [4, 6] was 6.81 mL/min/kg. The half-life [4, 6] was 3.01 h, the AUC [4, 7] was 26100 ng·h/mL and the Cmax [4, 7] was 10300 ng/mL. It also gave a Tmax [4, 7] of 0.25 h, a half-life [4, 7] of 2.94 h and a bioavailability ([4]; plasma, oral administration, PO 10 mg/kg vs IV 5 mg/kg) of 100%. The “activity towards human Histamine H2” value (human Histamine H2) was “inactive”, the “Rat Plasma Stability (% remaining)” value (Rat Plasma Stability; at 30 min) was 98.2% and the “Rat Plasma Stability (% remaining)” value (Rat Plasma Stability; at 60 min) was 80.3%. For the same molecule, the IC50 (CYP2D6) was greater than 30 µM, the “effect on cold allodynia” value (cold allodynia; [8]) was “significantly attenuated” and the “maximal activity, inhibition of cold allodynia” value (cold allodynia; [9]) was “about 50%”. For the same molecule, the IC50 (CYP2C9) was greater than 30 µM, the IC50 (TRPV1) was greater than 10 µM and the microsomal CLint (CLint (rat)) was 29.4 µL/min/mg. The “activity towards human Dopamine D2S” value (human Dopamine D2S) was “inactive”, the “activity towards human Histamine H1” value (human Histamine H1) was “inactive” and the “activity towards human Adrenergic β1” value (human Adrenergic β1) was “inactive”. For the same molecule, the “activity towards human NK1” value (human NK1) was “inactive”, the IC50 (CYP2C19) was greater than 30 µM and the “activity towards human Muscarinic M2” value (human Muscarinic M2) was “inactive”. For the same molecule, the “effect on mechanical allodynia” value (mechanical allodynia; [8]) was “significantly attenuated” and the “maximal activity, inhibition of mechanical allodynia” value (mechanical allodynia; [9]) was “about 50%”.

Reference: US11046662B2, “2-aryl-4-hydroxy-1,3-thiazole derivatives useful as TRPM8-inhibitors in treatment of neuralgia, pain, COPD and asthma” (DOMPÉ FARMACEUTICI S.P.A., priority 2014, dated 2021)
